Experimental data reported in patent US10189841B2, “Purinones as ubiquitin-specific protease 1 inhibitors” (Forma Therapeutics, Inc., priority 2015, dated 2019).

Each molecule was assayed against USP1 (construct USP1 (I-785, GG670, 671AA)/UAF1 (I-677)-Flag) (Homo sapiens (Human), UniProt O94782, G670A/G671A) (assay: Ubiquitin-Rhodamine 110 assay for USP1 activity). Conditions: USP1/UAF1 25 pM, Ub-Rh110 25 nM, 30 min preincubation.
Type: biochemical
Summary of the method: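 Ub-Rh110 (25 nM, ≪Km) cleavage read at ex 485/em 535 in Tris pH 8.0, CaCl2, GSH, Prionex, Triton X-100. The screen used 10 µM compound, 100 pM USP1/UAF1 and 45 min at RT.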

USP1 (construct USP1 (I-785, GG670, 671AA)/UAF1 (I-677)-Flag), sequence (O94782 whole entry G670A/G671A): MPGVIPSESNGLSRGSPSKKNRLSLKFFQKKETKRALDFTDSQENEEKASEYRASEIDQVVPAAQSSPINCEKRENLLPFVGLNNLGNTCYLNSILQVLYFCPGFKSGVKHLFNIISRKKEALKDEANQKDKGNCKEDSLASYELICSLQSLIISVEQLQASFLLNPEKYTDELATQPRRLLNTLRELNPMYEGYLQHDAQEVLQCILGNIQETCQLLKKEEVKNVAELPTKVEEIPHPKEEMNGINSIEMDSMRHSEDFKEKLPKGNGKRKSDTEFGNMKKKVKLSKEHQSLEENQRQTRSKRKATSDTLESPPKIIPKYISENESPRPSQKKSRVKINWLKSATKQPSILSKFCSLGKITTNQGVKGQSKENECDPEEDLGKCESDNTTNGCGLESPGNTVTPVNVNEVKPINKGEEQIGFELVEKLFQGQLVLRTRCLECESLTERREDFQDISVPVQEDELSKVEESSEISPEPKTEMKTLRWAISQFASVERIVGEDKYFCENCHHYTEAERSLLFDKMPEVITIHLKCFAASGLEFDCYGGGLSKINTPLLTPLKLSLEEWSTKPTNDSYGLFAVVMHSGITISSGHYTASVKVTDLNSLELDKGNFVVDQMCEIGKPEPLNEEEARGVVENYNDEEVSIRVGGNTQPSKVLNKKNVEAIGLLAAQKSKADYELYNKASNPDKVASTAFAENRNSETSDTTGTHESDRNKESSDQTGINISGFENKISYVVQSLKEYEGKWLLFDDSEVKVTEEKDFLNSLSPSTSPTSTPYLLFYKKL
USP1 (construct USP1 (I-785, GG670, 671AA)/UAF1 (I-677)-Flag), sequence (Q8TAF3 whole entry partner): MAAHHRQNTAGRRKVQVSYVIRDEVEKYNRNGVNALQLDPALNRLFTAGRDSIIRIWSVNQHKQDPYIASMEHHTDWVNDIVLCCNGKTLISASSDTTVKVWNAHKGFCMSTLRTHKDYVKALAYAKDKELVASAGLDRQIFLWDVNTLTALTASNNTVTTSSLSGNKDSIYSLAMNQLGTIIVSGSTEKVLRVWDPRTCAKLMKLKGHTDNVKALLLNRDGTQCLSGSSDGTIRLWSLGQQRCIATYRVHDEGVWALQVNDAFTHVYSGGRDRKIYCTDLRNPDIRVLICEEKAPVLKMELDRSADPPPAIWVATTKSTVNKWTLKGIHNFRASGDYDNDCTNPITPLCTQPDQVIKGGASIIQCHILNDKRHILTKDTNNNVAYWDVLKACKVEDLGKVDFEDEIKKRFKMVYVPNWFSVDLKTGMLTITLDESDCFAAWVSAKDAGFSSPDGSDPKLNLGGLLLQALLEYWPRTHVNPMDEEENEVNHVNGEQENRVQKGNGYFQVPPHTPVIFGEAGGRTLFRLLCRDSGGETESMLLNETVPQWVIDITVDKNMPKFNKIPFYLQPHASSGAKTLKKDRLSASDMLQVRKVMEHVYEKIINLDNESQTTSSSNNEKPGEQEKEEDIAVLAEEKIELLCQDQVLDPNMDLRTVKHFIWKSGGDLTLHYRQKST

Row | Compound | IC50
1 | Cn1cc(C(F)(F)F)nc1-c1ccc(Cn2c(=O)[nH]c3cnc(-c4cccnc4N4CCC4)nc32)cc1 [Compound I-335, 2-(2-(azetidin-1-yl)pyridin-3-yl)-9-(4-(1-methyl-4-(trifluoromethyl)-1H-imidazol-2-yl)benzyl)-7,9-dihydro-8H-purin-8-one] | 50 to 200 nM
2 | CC(C)c1ccccc1-c1ncc2[nH]c(=O)n(Cc3ccc(-c4nccn4C)cc3)c2n1 [Compound I-160, 2-(2-isopropylphenyl)-9-(4-(1-methyl-1H-imidazol-2-yl)benzyl)-7,9-dihydro-8H-purin-8-one] | < 50 nM
3 | CC(C)c1ccccc1-c1ncc2c(n1)n(Cc1ccc(-n3cccn3)cc1)c(=O)n2C(C)C(=O)O (stereo not shown) [Compound I-530, 2-(9-(4-(1H-Pyrazol-1-yl)benzyl)-2-(2-isopropylphenyl)-8-oxo-8,9-dihydro-7H-purin-7-yl)propanoic acid] | 200 to 2000 nM
4 | Cc1cc(C)n(-c2cnc(Cn3c(=O)[nH]c4cnc(-c5ccccc5C(C)C)nc43)cn2)n1 [Compound I-510, 9-((5-(3,5-Dimethyl-1H-pyrazol-1-yl)pyrazin-2-yl)methyl)-2-(2-isopropylphenyl)-7,9-dihydro-8H-purin-8-one] | 50 to 200 nM
5 | CC(C)c1ncccc1-c1ncc2c(n1)n(Cc1ccc(-c3nc(C(F)(F)F)cn3C)cc1F)c(=O)n2C [Compound I-127, 9-(2-fluoro-4-(1-methyl-4-(trifluoromethyl)-1H-imidazol-2-yl)benzyl)-2-(2-isopropylpyridin-3-yl)-7-methyl-7,9-dihydro-8H-purin-8-one] | 50 to 200 nM
6 | CC(C)c1ccccc1-c1ncc2c(n1)n(CC1CCN(c3ncccn3)CC1)c(=O)n2C [Compound I-493, 2-(2-isopropylphenyl)-7-methyl-9-((1-(pyrimidin-2-yl)piperidin-4-yl)methyl)-7,9-dihydro-8H-purin-8-one] | > 2000 nM
7 | CC(C)c1ccccc1-c1ncc2[nH]c(=O)n([C@@H](C)c3ccc(-n4cccn4)cc3)c2n1 [Compound I-157, (S)-9-(1-(4-(1H-pyrazol-1-yl)phenyl)ethyl)-2-(2-isopropylphenyl)-7,9-dihydro-8H-purin-8-one] | 50 to 200 nM
8 | COC(=O)N1CCC(c2ccn(-c3ccc(Cn4c(=O)[nH]c5cnc(-c6ccccc6C(C)C)nc54)cc3)n2)CC1 [Compound I-543, Methyl 4-(1-(4-((2-(2-isopropylphenyl)-8-oxo-7,8-dihydro-9H-purin-9-yl)methyl)phenyl)-1H-pyrazol-3-yl)piperidine-1-carboxylate] | < 50 nM
9 | CC(=O)N1CCC(c2ccn(-c3ccc(Cn4c(=O)[nH]c5cnc(-c6cccnc6C(C)C)nc54)cc3)n2)CC1 [Compound I-465, 9-(4-(3-(1-acetylpiperidin-4-yl)-1H-pyrazol-1-yl)benzyl)-2-(2-isopropylpyridin-3-yl)-7,9-dihydro-8H-purin-8-one] | 200 to 2000 nM
10 | CC(C)COc1ncccc1-c1ncc2[nH]c(=O)n(Cc3ccc(-c4nc(C(F)(F)F)cn4C)cc3)c2n1 [Compound I-422, 2-(2-isobutoxypyridin-3-yl)-9-(4-(1-methyl-4-(trifluoromethyl)-1H-imidazol-2-yl)benzyl)-7,9-dihydro-8H-purin-8-one] | < 50 nM
11 | CC(C)c1cc(F)ccc1-c1ncc2c(n1)n(Cc1ccc(-n3cccn3)cc1)c(=O)n2C [Compound I-10, 9-(4-(1H-pyrazol-1-yl)benzyl)-2-(4-fluoro-2-isopropylphenyl)-7-methyl-7,9-dihydro-8H-purin-8-one] | 200 to 2000 nM
12 | Cc1nc(-c2ccc(Cn3c(=O)[nH]c4cnc(-c5ccccc5C(C)C)nc43)cc2)c(C)o1 [Compound I-200, 9-(4-(2,5-dimethyloxazol-4-yl)benzyl)-2-(2-isopropylphenyl)-7,9-dihydro-8H-purin-8-one] | < 50 nM
13 | CC(C)c1ccccc1-c1ncc2c(n1)n(Cc1ccc(-c3nc(C(F)(F)F)cn3C)cc1)c(=O)n2C [Compound I-63, 2-(2-isopropylphenyl)-7-methyl-9-(4-(1-methyl-4-(trifluoromethyl)-1H-imidazol-2-yl)benzyl)-7,9-dihydro-8H-purin-8-one] | < 50 nM
